According to EP3076168A1, “An electrochemical sensor” (Unisense Environment A/S, priority 2015, dated 2016):

Legend:
[1] = Profiling: penetration of oxygen through candidate solution, measured with an OX10 oxygen microsensor; conditions: 0.1 M solution in propylene carbonate
Protocol: The penetration of oxygen through the solution of the candidates was determined using an OX10 oxygen microsensor from Unisense A/S in conjunction with a microprofiling laboratory stand.
A small capillary, cautiously filled with candidate solution in order to avoid bulk oxidation, was placed underneath the tip of the oxygen microsensor. The microprofiling stand was remotely controlled by the bundled software in order to move the microelectrode tip with five to ten micrometers between each concentration measurement. The microelectrode was calibrated prior to each candidate measurement using air-bubbled demineralised water and oxygen-free alkaline ascorbic acid solution.
The microsensor was used to profile oxygen-free alkaline ascorbic acid solution prior to and after measurement of each candidate to 1) ensure that physical damage during candidate measurement could be detected and to 2) provide baseline signal for normalisation of candidate profiles.
Each candidate profile was subtracted the baseline signal and normalised with respect to surface oxygen concentration in order to assess the candidate oxygen removal efficiency. A normalised signal of unity equals surface oxygen concentration and a normalised signal of 0.01 equals a dissolved oxygen concentration of 1 % of surface concentration.

[2] = Solubility test of oxygen scavenger candidates (solvent added for a final 1 M, visual inspection of remaining solid); format: physicochemical; conditions: stated as substantially lower than 1 M
Protocol: In other cases, solubility tests with acetonitrile instead of propylene carbonate was performed.
In the case that solids remained after addition of solvent and vigorous stirring, the solubility of a candidate is assessed by visual inspection of the amount of remaining compound versus the amount of compound prior to solvent addition. In the case of a commercially available candidate dissolved in tetrahydrofuran (THF), the THF is removed under reduced pressure prior to addition of solvent.

| Compound | Oxygen profile depth [1] | Concentration in propylene carbonate (PC) [2] |
| --- | --- | --- |
| c1ccc(Pc2ccccc2)cc1 [Candidate 1, Diphenylphosphine] | ca. 75 µm | – |
| CC(C)(C)P(CCCC[N+]1(C)CCOCC1)C(C)(C)C.[Br-] [Candidate 10, N-[4-(di-tert-butylphosphino)butyl]-N-methylmorpholinium bromide] | – | lower than 1 M |
